{"source": "PubChem BioAssay AID1259407", "about": "(Chemical Carcinogenesis Research Information System (CCRIS), 2018)", "test_system": "CCRIS mutagenicity, Ames/micronucleus/aberration tests", "test": "CCRIS mutagenicity studies", "key": {"[1]": {"conditions": "Test System: AMES SALMONELLA TYPHIMURIUM, Strain/Indicator: TA98, Metabolic Activation: NONE, Method: STANDARD PLATE"}, "[2]": {"conditions": "Test System: AMES SALMONELLA TYPHIMURIUM, Strain/Indicator: TA98, Metabolic Activation: RAT, LIVER, S-9, AROCLOR 1254, Method: STANDARD PLATE"}, "[3]": {"conditions": "Test System: AMES SALMONELLA TYPHIMURIUM, Strain/Indicator: TA100, Metabolic Activation: NONE, Method: STANDARD PLATE"}, "[4]": {"conditions": "Test System: AMES SALMONELLA TYPHIMURIUM, Strain/Indicator: TA100, Metabolic Activation: RAT, LIVER, S-9, AROCLOR 1254, Method: STANDARD PLATE"}, "[5]": {"conditions": "Test System: AMES SALMONELLA TYPHIMURIUM, Strain/Indicator: TA1535, Metabolic Activation: NONE, Method: STANDARD PLATE"}, "[6]": {"conditions": "Test System: AMES SALMONELLA TYPHIMURIUM, Strain/Indicator: TA1535, Metabolic Activation: RAT, LIVER, S-9, AROCLOR 1254, Method: STANDARD PLATE"}, "[7]": {"conditions": "Test System: AMES SALMONELLA TYPHIMURIUM, Strain/Indicator: TA1537, Metabolic Activation: NONE, Method: STANDARD PLATE"}, "[8]": {"conditions": "Test System: AMES SALMONELLA TYPHIMURIUM, Strain/Indicator: TA1537, Metabolic Activation: RAT, LIVER, S-9, AROCLOR 1254, Method: STANDARD PLATE"}, "[9]": {"conditions": "Test System: AMES SALMONELLA TYPHIMURIUM, Strain/Indicator: TA1538, Metabolic Activation: NONE, Method: STANDARD PLATE"}, "[10]": {"conditions": "Test System: AMES SALMONELLA TYPHIMURIUM, Strain/Indicator: TA1538, Metabolic Activation: RAT, LIVER, S-9, AROCLOR 1254, Method: STANDARD PLATE"}}, "note": "Activity calls are given as the source filed them. The rule behind the calls is not given here.", "data": [{"smiles": "C=C(C)C(C)=O", "values": [{"measurement": "mutagenic call", "setting": "Test System: AMES SALMONELLA TYPHIMURIUM, Strain/Indicator: TA98, Metabolic Activation: HAMSTER, LIVER, S-9, AROCLOR 1254, Method: STANDARD PLATE", "value": "inactive; negative"}, {"measurement": "mutagenic call", "setting": "[1]", "value": "inactive; negative"}, {"measurement": "mutagenic call", "setting": "[2]", "value": "inactive; negative"}, {"measurement": "mutagenic call", "setting": "Test System: AMES SALMONELLA TYPHIMURIUM, Strain/Indicator: TA100, Metabolic Activation: HAMSTER, LIVER, S-9, AROCLOR 1254, Method: STANDARD PLATE", "value": "inactive; negative"}, {"measurement": "mutagenic call", "setting": "[3]", "value": "inactive; negative"}, {"measurement": "mutagenic call", "setting": "[4]", "value": "inactive; negative"}, {"measurement": "mutagenic call", "setting": "Test System: AMES SALMONELLA TYPHIMURIUM, Strain/Indicator: TA1535, Metabolic Activation: HAMSTER, LIVER, S-9, AROCLOR 1254, Method: STANDARD PLATE", "value": "inactive; negative"}, {"measurement": "mutagenic call", "setting": "[5]", "value": "inactive; negative"}, {"measurement": "mutagenic call", "setting": "[6]", "value": "inactive; negative"}, {"measurement": "mutagenic call", "setting": "Test System: AMES SALMONELLA TYPHIMURIUM, Strain/Indicator: TA1537, Metabolic Activation: HAMSTER, LIVER, S-9, AROCLOR 1254, Method: STANDARD PLATE", "value": "inactive; negative"}, {"measurement": "mutagenic call", "setting": "[7]", "value": "inactive; negative"}, {"measurement": "mutagenic call", "setting": "[8]", "value": "inactive; negative"}, {"measurement": "mutagenic call", "setting": "Test System: AMES SALMONELLA TYPHIMURIUM, Strain/Indicator: TA1538, Metabolic Activation: HAMSTER, LIVER, S-9, AROCLOR 1254, Method: STANDARD PLATE", "value": "inactive; negative"}, {"measurement": "mutagenic call", "setting": "[9]", "value": "inactive; negative"}, {"measurement": "mutagenic call", "setting": "[10]", "value": "inactive; negative"}, {"measurement": "mutagenic call", "setting": "Test System: Mouse lymphoma, Strain/Indicator: L5178Y (tk+/tk-), Metabolic Activation: None, Method: Suspension/plate", "value": "active; positive"}, {"measurement": "mutagenic call", "setting": "Test System: Mouse lymphoma, Strain/Indicator: L5178Y (tk+/tk-), Metabolic Activation: Rat, Liver, S-9, Aroclor 1254, Method: Suspension/plate", "value": "active; positive"}]}, {"smiles": "CC(C)(CO)[C@@H](O)C(=O)NCCCO", "values": [{"measurement": "mutagenic call", "setting": "[1]", "value": "inactive; negative"}, {"measurement": "mutagenic call", "setting": "[2]", "value": "inactive; negative"}, {"measurement": "mutagenic call", "setting": "[3]", "value": "inactive; negative"}, {"measurement": "mutagenic call", "setting": "[4]", "value": "inactive; negative"}, {"measurement": "mutagenic call", "setting": "[5]", "value": "inactive; negative"}, {"measurement": "mutagenic call", "setting": "[6]", "value": "inactive; negative"}, {"measurement": "mutagenic call", "setting": "[7]", "value": "inactive; negative"}, {"measurement": "mutagenic call", "setting": "[8]", "value": "inactive; negative"}, {"measurement": "mutagenic call", "setting": "[9]", "value": "inactive; negative"}, {"measurement": "mutagenic call", "setting": "[10]", "value": "inactive; negative"}, {"measurement": "mutagenic call", "setting": "Test System: E. COLI, Strain/Indicator: WP2, Metabolic Activation: NONE, Method: STANDARD PLATE", "value": "inactive; negative"}, {"measurement": "mutagenic call", "setting": "Test System: E. COLI, Strain/Indicator: WP2, Metabolic Activation: RAT, LIVER, S-9, AROCLOR 1254, Method: STANDARD PLATE", "value": "inactive; negative"}]}, {"smiles": "Cn1c(N)nc2nc3ccncc3cc21", "values": [{"measurement": "mutagenic call", "setting": "Test System: AMES SALMONELLA TYPHIMURIUM, Strain/Indicator: TA98, Metabolic Activation: RAT, LIVER, S-9, AROCLOR 1254A, Method: STANDARD PLATE", "value": "inactive; negative"}, {"measurement": "mutagenic call", "setting": "Test System: AMES SALMONELLA TYPHIMURIUM, Strain/Indicator: YG1024, Metabolic Activation: RAT, LIVER, S-9, AROCLOR 1254A, Method: STANDARD PLATE", "value": "active; positive"}]}, {"smiles": "O=[N+]([O-])c1ccc(OCC2CO2)cc1", "note": "(stereo unspecified)", "values": [{"measurement": "mutagenic call", "setting": "Test System: AMES SALMONELLA TYPHIMURIUM, Strain/Indicator: TA98, Metabolic Activation: NONE, Method: PREINCUBATION", "value": "inactive; negative"}, {"measurement": "mutagenic call", "setting": "Test System: AMES SALMONELLA TYPHIMURIUM, Strain/Indicator: TA100, Metabolic Activation: NONE, Method: PREINCUBATION", "value": "active; positive"}, {"measurement": "mutagenic call", "setting": "[3]", "value": "active; positive"}, {"measurement": "mutagenic call", "setting": "Test System: AMES SALMONELLA TYPHIMURIUM, Strain/Indicator: TA104, Metabolic Activation: NONE, Method: STANDARD PLATE", "value": "active; positive"}, {"measurement": "mutagenic call", "setting": "Test System: AMES SALMONELLA TYPHIMURIUM, Strain/Indicator: TA4001, Metabolic Activation: NONE, Method: STANDARD PLATE", "value": "active; positive"}, {"measurement": "mutagenic call", "setting": "Test System: AMES SALMONELLA TYPHIMURIUM, Strain/Indicator: TA4006, Metabolic Activation: NONE, Method: STANDARD PLATE", "value": "active; positive"}]}, {"smiles": "CCOC(=O)c1[nH]c2ccccc2c1N=Cc1cc(OC)c(OC)c(OC)c1", "values": [{"measurement": "mutagenic call", "setting": "Test System: AMES SALMONELLA TYPHIMURIUM, Strain/Indicator: TA97, Metabolic Activation: NONE, Method: STANDARD PLATE", "value": "active; positive"}, {"measurement": "mutagenic call", "setting": "Test System: AMES SALMONELLA TYPHIMURIUM, Strain/Indicator: TA97, Metabolic Activation: RAT, LIVER, S-9, AROCLOR 1254, Method: STANDARD PLATE", "value": "inactive; negative"}, {"measurement": "mutagenic call", "setting": "[1]", "value": "inactive; negative"}, {"measurement": "mutagenic call", "setting": "[2]", "value": "inactive; negative"}, {"measurement": "mutagenic call", "setting": "[3]", "value": "inactive; negative"}, {"measurement": "mutagenic call", "setting": "[4]", "value": "inactive; negative"}, {"measurement": "mutagenic call", "setting": "Test System: AMES SALMONELLA TYPHIMURIUM, Strain/Indicator: TA102, Metabolic Activation: NONE, Method: STANDARD PLATE", "value": "inactive; negative"}, {"measurement": "mutagenic call", "setting": "Test System: AMES SALMONELLA TYPHIMURIUM, Strain/Indicator: TA102, Metabolic Activation: RAT, LIVER, S-9, AROCLOR 1254, Method: STANDARD PLATE", "value": "inactive; negative"}]}, {"smiles": "c1ccc2c(c1)ccc1cc3ccc4ccncc4c3cc12", "values": [{"measurement": "mutagenic call", "setting": "[1]", "value": "inactive; negative"}, {"measurement": "mutagenic call", "setting": "Test System: AMES SALMONELLA TYPHIMURIUM, Strain/Indicator: TA98, Metabolic Activation: RAT, LIVER, S-9, AROCLOR 1254 (10%), Method: STANDARD PLATE", "value": "active; positive"}, {"measurement": "mutagenic call", "setting": "[2]", "value": "active; positive"}, {"measurement": "mutagenic call", "setting": "[3]", "value": "inactive; negative"}, {"measurement": "mutagenic call", "setting": "Test System: AMES SALMONELLA TYPHIMURIUM, Strain/Indicator: TA100, Metabolic Activation: RAT, LIVER, S-9, AROCLOR 1254 (10%), Method: STANDARD PLATE", "value": "active; positive"}, {"measurement": "mutagenic call", "setting": "[4]", "value": "active; positive"}]}]}
